Data from BigSolDB 2.1.

COc1ccc(C(=O)c2ccc(OC)cc2)cc1
solubility (mole fraction)
Conditions	in benzene	in ethanol	in ethyl acetate	in isobutanol	in isopropanol	in methanol	in methyl acetate	in n-butanol	in n-propanol	in n-propyl acetate
293.15 K	0.0123	0.00091	0.00908	0.00101	0.00079	0.00067	0.00958	0.00114	0.00114	0.00947
298.15 K	0.0149	0.00109	0.0111	0.00137	0.001	0.00081	0.0115	0.00164	0.00141	0.0112
303.15 K	0.018	0.00141	0.0129	0.00168	0.0013	0.00104	0.0138	0.00214	0.00177	0.0126
308.15 K	0.0221	0.00188	0.0155	0.00237	0.00193	0.00134	0.0166	0.00306	0.00224	0.0151
313.15 K	0.0278	0.0024	0.0189	0.00313	0.00241	0.00181	0.0204	0.0036	0.00314	0.0187
318.15 K	0.0338	0.00302	0.023	0.00404	0.00308	0.00219	0.0248	0.00457	0.00403	0.0229
323.15 K	0.041	0.00402	0.0284	0.00539	0.00423	0.00286	0.0311	0.00612	0.00538	0.0277
328.15 K	0.0504	0.00516	0.0343	0.00718	0.00549	0.0037	0.0376	0.00824	0.00707	0.0329
333.15 K	0.063	0.00653	0.0408	0.00972	0.0075	0.00473	–	0.00996	0.00928	0.0406
